Experiments:
[1] = system: murine leukemia L1210 cells; conditions: cited from earlier work; for IC50: diethyl ester prodrugs, after 72 hours of incubation, read-out: IC50, growth inhibition of L1210 cells in culture
bovine liver GlxII = biological target: T1, bovine liver GlxII (Bos taurus, UniProt Q3B7M2); conditions: cited from earlier work
T1 construct: host or cells: bovine liver

PC3 prostate tumors = conditions: intravenous administration, tumor-bearing mice; cited from earlier work
HT29 human colon tumors = conditions: intravenous administration, tumor-bearing mice; cited from earlier work
[2] = intravenous administration, tumor-bearing mice; cited from earlier work
B16 melanotic melanoma = conditions: intravenous administration, tumor-bearing mice; cited from earlier work
[3] = system: Murine B16 melanotic melanoma; experiment: In vitro cytotoxicity, growth inhibition of B16 melanotic melanoma; type: cell-based; conditions: 72 hours
Protocol: Murine B16 melanotic melanoma was obtained from the DCT Tumor Repository (NCI-Cancer Research and Development Center, Frederick, Md.) and was maintained in RPMI 1640 medium containing L-glutamate (Gibco BRL, Gaithersburg, Md.), supplemented with 10% heat-inactivated fetal calf serum and gentamycin (10 μg/mL), under 37° C. humidified air containing 5% CO2. Under these conditions B16 cells have a doubling time of about 26 hours. For the toxicity studies, cells in logarithmic growth were introduced into 24 well plates at a density of 2×10^4 cells/ml in the absence and presence of drug spanning the IC50 values.
After 72 hours, the cells were washed with Hank's balanced salt solution without Ca^2+, treated with trypsin for 10 minutes at 37° C., concentrated by centrifugation and cell densities determined with a Coulter Counter. Cell viabilities were determined by the trypan blue exclusion method (Kaltenbach et al, Exp. Cell. Res. 15:112-117 (1958)).
Reported IC50 values (mean ±standard deviation of triplicate determinations carried out in three separate assays on different days) were calculated using the Hill equation and the program ADAPT (D'Argenio and Schumitzky, Comput. Methods Programs Biomed. 9:115-134 (1979)).

[4] = potassium phosphate buffer, 25° C., cited from earlier work
[5] = system: several different tumor cell lines; conditions: in vitro; cited from earlier work

CCOC(=O)CNC(=O)C(CSC(=O)N(O)c1ccc(Br)cc1)NC(=O)CCC(N)C(=O)OCC (centres unmarked) [BHG(Et)2]
IC50 [1]: 16 µM

N[C@@H](CCC(=O)N[C@@H](CSC(=O)N(O)c1ccc(Br)cc1)C(=O)NCC(=O)O)C(=O)O [BHG, S—(N-p-bromophenyl-N-hydroxycarbamoyl)glutathione]
substrate for bovine liver GlxII (bovine liver GlxII): substrates for bovine liver GlxII

CCOC(=O)CNC(=O)[C@H](CSC(=O)N(O)c1ccc(Cl)cc1)NC(=O)CC[C@H](N)C(=O)OCC [CHG(Et)2]
inhibition of tumor growth, PC3 prostate tumors (PC3 prostate tumors): inhibits the growth
IC50 [1]: 5 µM
toxicity to L1210 cells versus normal splenic lymphocytes ([1]; in culture): significantly more toxic to murine leukemia L1210 cells than to normal splenic lymphocytes
inhibition of tumor growth, HT29 human colon tumors (HT29 human colon tumors): inhibits the growth
side effects in short term efficacy studies [2]: did not detect any significant side effects
tissue distribution of the prodrug [2]: appearance of the prodrug in all major organs
inhibition of tumor growth, B16 melanotic melanoma (B16 melanotic melanoma): inhibits the growth

N[C@@H](CCC(=O)N[C@@H](CSC(=O)N(O)c1ccc(Cl)cc1)C(=O)NCC(=O)O)C(=O)O [CHG, S—(N-p-chlorophenyl-N-hydroxycarbamoyl)glutathione]
substrate for bovine liver GlxII (bovine liver GlxII): substrates for bovine liver GlxII

CC[S+]([O-])C(=O)N(O)c1ccc(Cl)cc1 (centres unmarked) [Compound 2, S—(N-4-chlorophenyl-N-hydroxycarbamoyl)ethyl sulfoxide]
IC50 value relative to that of HPMA-8-sulfoxide (P1), fold lower [3]: five to ten-fold lower
rate constant k for reaction of GSH with the simple sulfoxide ([4]; 0.1 M (pH 7.5)): 30.7 ± 1.2 M⁻¹ s⁻¹
cytostatic and cytotoxic activity on tumor cell lines [5]: cytostatic and cytotoxic

CCC[S+]([O-])C(=O)N(O)c1ccc(Cl)cc1 (centres unmarked) [Compound 2a, S—(N-4-Chlorophenyl-N-hydroxycarbamoyl)propyl sulfoxide]
IC50 value relative to that of HPMA-8-sulfoxide (P1), fold lower [3]: five to ten-fold lower

CCCC[S+]([O-])C(=O)N(O)c1ccc(Cl)cc1 (centres unmarked) [Compound 2b, S—(N-4-Chlorophenyl-N-hydroxycarbamoyl)butyl sulfoxide]
IC50 value relative to that of HPMA-8-sulfoxide (P1), fold lower [3]: five to ten-fold lower

C/C=C/C(=O)OCC1=CCCCC1=O [Compound 3, 2-crotonyloxymethyl-2-cyclohexenone]
IC50 value relative to that of HPMA-7 (P4), fold lower [3]: over 7000 fold
rate constant k for reaction of GSH with the crotonate ester ([4]; 0.1 M (pH 6.5)): 1.13 ± 0.017 M⁻¹ s⁻¹

CCOC(=O)CNC(=O)C(CSC(=O)N(O)c1ccccc1)NC(=O)CCC(N)C(=O)OCC (centres unmarked) [PHG(Et)2]
IC50 [1]: 63 µM

CN(O)C(=O)SC[C@H](NC(=O)CC[C@H](N)C(=O)O)C(=O)NCC(=O)O [S—(N-methyl-N-hydroxycarbamoyl)glutathione]
substrate for bovine liver GlxII (bovine liver GlxII): substrates for bovine liver GlxII

N[C@@H](CCC(=O)N[C@@H](CSC(=O)N(O)c1ccccc1)C(=O)NCC(=O)O)C(=O)O [S—(N-phenyl-N-hydroxycarbamoyl)glutathione]
substrate for bovine liver GlxII (bovine liver GlxII): substrates for bovine liver GlxII
